Consider 13 compounds from PubChem BioAssay (NCI).

What all share (test): inhibition of tumour cell growth, NCI panel, 48 h
Assay [1] concerns HCC-2998 colon.
Assay [2] concerns K-562 leukemia.
Assay [3] deals with NCI-H23 lung.
The subject of assay [4] is NCI-H460 lung.
Assay [5] deals with NCI-H522 lung.
For assay [6], the system named is RPMI-8226 leukemia.
Assay [7] has as its system RXF 393 renal.
Assay [8] concerns SK-MEL-28 melanoma.
Assay [9] concerns SW-620 colon.
Assay [10] concerns UO-31 renal.

Values joined by “and” are separate entries in the source; they are usually repeats but may differ in a detail not shown here. Equal values may be shown once.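 96-well plates; 48 h exposure; 5 concentrations. Endpoints by linear interpolation between flanking doses. Not reached: highest tested concentration assigned. At the GI50, growth is halved. TGI: concentration producing complete growth inhibition.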

Turning to `N#Cc1c(NC(=O)CN2CCOCC2)sc2c1CCCC2`, the GI50 in [1], in assay [2], in [3], in assay [4], in assay [5] and in assay [6] was above 25 µM throughout. Also, the GI50 in [7], in assay [8], in assay [9] and in [10] was above 25 µM throughout. Also, the TGI in assay [1], in [2], in assay [3], in assay [4], in assay [5] and in [6] was above 25 µM in each case. The TGI in assay [7], in [8], in assay [9] and in assay [10] was above 25 µM throughout.
In the case of `CNc1ccc(-c2cc(=O)oc3ccc(Cl)cc23)cc1`, the GI50 was 0.373 µM and 0.127 µM in assay [1]; 0.0312 µM and 0.0363 µM in assay [2]; 0.311 µM and 0.219 µM in assay [3]; 0.0487 µM and 0.0441 µM in [4]; 0.03 µM in assay [5]; 0.194 µM and 0.154 µM in assay [6]. The GI50 was 0.0912 µM in [7]; 2.08 µM in assay [8]; 0.0477 µM and 0.0437 µM in [9]; 0.417 µM and 0.501 µM in assay [10]. Moreover, the TGI was 17.1 µM in [1]; above 100 µM in assay [2]; above 100 µM in assay [3]; above 100 µM in [4]; 0.311 µM in assay [5]; 33.9 µM in [6]. The TGI in assay [7], in assay [8], in assay [9] and in [10] was above 100 µM in each case.
Consider `C=C(C)[C@@H]1CCC2=C[C@@H](OC2=O)[C@@H](C(=C)C)C(=O)/C=C(/C)C(=O)C1`, for which the GI50 in assay [1] was 26.2 µM; in assay [2], 18.7 µM; in assay [3] it was 22.6 µM; in [4], 29.1 µM; in [5] it was 34.4 µM; in [6], 1.76 µM. For the same compound, the GI50 in assay [7] is 22.4 µM; in [8], 34.8 µM; in [9] it was 24.7 µM; in assay [10] it was 42.2 µM. Moreover, the TGI in assay [1] is 62.2 µM; in assay [2], above 100 µM; in [3], 60.4 µM; in assay [4] it was 92.2 µM; in [5] it was above 100 µM; in [6] it was 17.1 µM. Moreover, the TGI is 53.3 µM in assay [7], 87.5 µM in [8], 68.4 µM in assay [9] and above 100 µM in assay [10].
On to `O=c1c2ccccc2c(=O)c2c1cc(Cl)c1[nH]c3c([nH]c12)c(Cl)cc1c(=O)c2ccccc2c(=O)c13`, for which the TGI in assay [1], in assay [2], in [3], in assay [4], in assay [5] and in assay [6] was above 100 µM each time. Also, the TGI in [7], in assay [8], in [9] and in assay [10] was above 100 µM each time.
On to `Cc1ccccc1N=Nc1c(O)[nH]c2ccccc12`, for which the TGI in [1], in assay [2], in [3], in assay [4], in assay [5] and in assay [6] was above 100 µM in each case. The TGI in assay [7], in assay [8], in assay [9] and in assay [10] was above 100 µM in each case.
For `N#Cc1c(-c2ccccc2)cc(-c2ccccc2)n(CCCCC(=O)NO)c1=O`, the GI50 in assay [1] was 2.65 µM; in assay [2] it was 2.1 µM; in [3], 2.4 µM; in assay [4] it was 3.71 µM; in assay [5] it was 2.06 µM; in assay [6], 1.57 µM. In addition, the GI50 in assay [7] was 1.43 µM; in assay [8], 2.8 µM; in assay [9], 2.95 µM; in assay [10], 1.22 µM. Also, the TGI in assay [1] came to 10.8 µM; in assay [2], 12.4 µM; in [3], 6.94 µM; in [4], 15.2 µM; in assay [5] it was 8.36 µM; in assay [6], 4.61 µM. Also, the TGI in assay [7] was determined as 3.36 µM; in assay [8], 10.4 µM; in assay [9], 11.9 µM; in assay [10] it was 3.47 µM.
On to `O=C(CCCc1ccccn1)c1ccccc1`, for which the TGI in assay [1], in assay [2], in [3], in assay [4], in [5] and in assay [6] was above 100 µM in each case. The TGI in assay [7], in [8], in [9] and in assay [10] was above 100 µM in each case.
As for `COc1ccc(-c2cc(/C=C3\C(=O)Nc4ccc(OC)cc43)[nH]n2)cc1`, the GI50 in assay [1] is above 100 µM; in assay [2] it was 0.479 µM; in [3], above 100 µM; in assay [4], 5.45 µM; in [5], 11 µM; in [6] it was above 100 µM. Further, the GI50 in assay [7] was 55 µM; in assay [8] it was above 100 µM; in assay [9], 0.912 µM; in assay [10], above 100 µM. The TGI in [1], in assay [2], in assay [3], in assay [4], in assay [5] and in assay [6] was above 100 µM throughout. The TGI in [7], in assay [8], in assay [9] and in [10] was above 100 µM each time.
`Clc1ccc(-c2nn3ncccc3c2-c2ccnc(Nc3ccccc3)n2)cc1`: the GI50 was 10.9 µM in assay [1]; 2.89 µM in assay [2]; 10.5 µM in assay [3]; 6.34 µM in assay [4]; 5.99 µM in assay [5]; 11.7 µM in [6]. Further, the GI50 is 6.56 µM in [7], above 22.2 µM in [8], 12 µM in [9] and 1.35 µM in [10]. Besides, the TGI in assay [1], in assay [2], in [3], in assay [4], in [5] and in assay [6] was above 25 µM in each case. Further, the TGI in assay [7] was above 25 µM; in [8] it was above 25 µM; in assay [9], above 25 µM; in assay [10], above 16.1 µM.
Consider `CCCN(CCC)CCCNC(=O)c1cc2c(-c3ccc(OC)c(OC)c3)nn(C)c2s1`, for which the GI50 in assay [1] was 18.8 µM; in [2], 21.5 µM; in [3], 58 µM; in [4], 32.6 µM; in [5], 16.6 µM; in [6], 14.6 µM. Moreover, the GI50 was 10.7 µM in assay [7], 16.6 µM in assay [8], 24.5 µM in [9] and 13.6 µM in [10]. Moreover, the TGI in [1] was 37.7 µM; in assay [2] it was 66.2 µM; in assay [3] it was above 100 µM; in assay [4], above 100 µM; in assay [5], 41.3 µM; in [6], 42.2 µM. Further, the TGI in [7] came to 31.1 µM; in assay [8] it was 32.1 µM; in [9], 82.6 µM; in assay [10], 47 µM.
Turning to `O=C(c1cccs1)c1c(C(F)(F)F)n([O-])c2ccc(F)cc2[n+]1=O`, the GI50 in assay [1] is 0.8 µM; in assay [2], 0.0904 µM; in [3] it was 1.22 µM; in assay [4], 1.38 µM; in [5] it was 1.46 µM; in assay [6], 0.188 µM. In addition, the GI50 is 1.2 µM in [7], 1.52 µM in assay [8], 0.523 µM in assay [9] and 1.3 µM in assay [10]. Besides, the TGI in assay [1] was 1.98 µM; in assay [2], 0.27 µM; in assay [3], 2.6 µM; in [4] it was 3.84 µM; in assay [5], 2.88 µM; in assay [6] it was 0.485 µM. Also, the TGI in [7] turned out to be 2.74 µM; in [8], 2.86 µM; in [9], 2.32 µM; in assay [10] it was 2.58 µM.
On to `CN(C)CCN=Cc1c2ccccc2c(=O)n2c1oc1ccccc12`, for which the GI50 was 12.2 µM in [1]; 11 µM in assay [2]; 10.5 µM in assay [3]; 2.94 µM in assay [4]; 16.5 µM in [5]; 11.3 µM in assay [6]. The figures for the GI50 in [7], in assay [8] and in assay [10] were 12.7 µM, 10.5 µM and 6.67 µM, respectively. Also, the TGI in assay [1] is 24.6 µM; in assay [2], above 100 µM; in assay [3], 23 µM; in assay [4], 11.7 µM; in assay [5], 38 µM; in assay [6] it was above 100 µM. Further, the TGI is 28.6 µM in assay [7], 23.1 µM in assay [8] and 28.6 µM in assay [10].
For the compound `O=C(O)CCC1(Br)CCCCC(Br)C1=O` (configuration not stated), the TGI in assay [1], in [2], in assay [3], in assay [4], in assay [5] and in assay [6] was above 100 µM in each case. The TGI in assay [7], in assay [8] and in [9] was above 100 µM in each case.
